SMILES strings stand for the structures.

The source of these data is a melting point compilation (Tetko et al.; mined from patent text by program, amines drawn as free bases though some values may be those of a salt).

A word on the melting point: it is the temperature, or range, at which the solid turns liquid. As to `CCCCc1nc(Cl)c(/C=C(\Cc2ccccc2)C(=O)O)n1Cc1ccc(-c2c(O)c(=O)c2=O)cc1`, the melting point was in the range of 155 to 160 °C.

For `CNC(=O)c1ccc(C2=N[C@H]3CCCC[C@H]3c3cc(OC)c(OC)cc32)cc1` (racemic), the melting point lay in the range of 209 to 211 °C. Then `CCOC(=O)c1nnc(S)n1Cc1ccc(OC)cc1`, with 142 to 144 °C; and `O=C(NC[C@H](O)c1ccccc1)c1ccnc(N2CCN(Cc3ccc(F)cc3)C2=O)c1`, with 97 to 99 °C; and `O=[N+]([O-])c1ccc(N2C[C@@H]3C[C@H]2CO3)c(F)c1`, with 106 to 108 °C. `O=C(O)C1CCCc2c(n(Cc3ccc(Cl)cc3)c3ccc(F)cc23)C1` (stereo not drawn) yielded a melting point of 185 to 186 °C. The same measure for `Cn1c(CCN2CCN(c3ccc(Cl)cc3)CC2)nc2ccc3ccccc3c21`: 213 to 215 °C.

With `CN(C)c1ccc(CCBr)cc1`, the melting point was in the range of 45 to 46 °C. Then `CSc1csc(NC(=O)c2ccc(OC(C)=O)cc2)n1`, with 186 to 189 °C. The same measure for `ON=C1CSc2ccccc2CN1`: 208 to 210 °C. The same measure for `CC(C)(C)c1cc(SCc2nc3cccnc3[nH]2)cc(C(C)(C)C)c1O`: 241 to 242 °C. The molecule `O=C(O)c1ccc(OCCNC(=O)C2Cc3ccccc3N2S(=O)(=O)c2ccc(-c3ccc(F)cc3)cc2)c(F)c1` (stereo not drawn) registered a melting point of 118 °C. As for `COc1ccc2c3cc(C(=O)NCCc4ccc(Cl)cc4)ccc3n(CC3CCCCC3)c2c1`, the melting point lay within 179 to 181 °C. Then `Oc1ccc2c(c1)CCCC(c1ccccc1)=C2c1ccc(OCCCCCCCl)cc1`, with 193 °C; and `COc1cc(C)c(C(C)O)cc1NC(=S)N1CCN(c2cc(Cl)cc(Cl)c2)CC1` (stereo not drawn), with 166 to 168 °C; and `NNc1ccc(S(=O)(=O)c2ccc(NN)cc2)cc1`, with 179 to 183 °C. Then `Cc1cc(N)c(C)c(Cl)c1Oc1ccc(Cl)c2ccccc12`, with 118 to 125 °C. Then `O=C1NC(=O)C(S(=O)(=O)c2ccc3ccccc3n2)S1` (stereo not drawn), with 168 to 169 °C. Molecule `COc1ccc2nc3cc(OC)c(=O)cc-3sc2c1` registered a melting point of 237 to 238 °C. The same measure for `CCc1ccc(S(=O)(=O)NCc2ccccc2-c2ccccc2C(=O)NCCc2ccccc2)cc1`: 163 °C; for `CC(C)(C)c1cc(C(O)C#Cc2ccc(C(=O)O)cc2)ccc1N1CCCC1` (stereo not drawn): 150 °C; for `N#Cc1ccc(CNC(=O)c2cccc(C#CCn3cncn3)c2)cc1`: 183 to 186 °C. Then `CCc1c(-c2ccccc2)c2c(c3c1[nH]c1ccc(O)cc13)C(=O)NC2=O`, with 190 to 196 °C. In the case of `O=C1N[C@H](C(=O)O)CSCCCCCCCCC1CS` (stereo partly drawn), the melting point fell in the range of 165 to 168 °C. The same measure for `NS(=O)(=O)c1ccc(NN=C2C(=O)Nc3ccc(C(=O)NCCCn4ccnc4)cc32)cc1`: more than 230 °C. Then `CC(C)(C)OC(=O)NC1CCCCCC=CC2CC2(C(=O)NS(=O)(=O)C2CC2)NC(=O)C2CC(OC(=O)c3ccc(F)cc3)CN2C1=O` (stereo not drawn), with 154 to 156 °C; and `CCCc1c(Cl)sc2[nH]c(=O)c(=O)[nH]c12`, with 285 to 287 °C. For `CCCCC(CC)COC(=O)C(C#N)=Cc1ccc(NC(=O)C(CC)CCCC)cc1` (stereo not drawn), the melting point is 68 °C. Then `CCOCN1C(C)=C(C(=O)OC)C(c2cccc([N+](=O)[O-])c2)C(C(=O)OCCBr)=C1C` (stereo not drawn), with 72.5 to 74 °C. Then `C(=C1c2ccccc2-c2ccccc21)c1nc(COc2ccc(CCCn3ccnc3)cc2)co1`, with 116 to 117 °C; and `CC(Cl)c1nc2c(c(=O)n(C)c(=O)n2C)n1C` (stereo not drawn), with 190 °C; and `Cc1ccc2c(c1C)C(=O)CC2`, with 43 to 44 °C. Then `CNC(=O)C1(N2C(=O)c3cccc(NC(C)=O)c3C2=O)CCCCC1`, with 205 to 208 °C.

For the molecule `Cc1cccc(-c2[nH]c(C(C)C)nc2-c2cccc(-c3ccc(NS(=O)(=O)C4CC4)cn3)c2)n1`, the melting point lay in the range of 133 to 136 °C. With `CCOC(=O)c1ccccc1N(CC(=O)N(C)c1ccccc1)C(=O)CN1C(=O)c2ccccc2C1=O`, the melting point was found to be 202 °C. The same measure for `CCOc1c(CC)ccnc1C(=O)c1[nH]c2cc(Cl)ccc2c1CC(=O)O`: 165 °C; for `CSc1ccc([N+](=O)[O-])cn1`: 111 to 112 °C; for `CC1CC(=O)c2cc([N+](=O)[O-])c(Br)cc2O1` (stereo not drawn): 125 to 128 °C. The same measure for `O=C(NCCSCCNC(=O)c1cccc(Cl)c1)c1cccc(Cl)c1`: 150 to 152 °C; for `O=C1CCCCC1(CCCCCOc1ccccc1)c1ccccc1` (stereo not drawn): 69 to 72 °C; for `CC(C)N1C(CO)=Cc2ccsc2S1(=O)=O`: 67 to 69 °C. The molecule `COc1cccc(CC(=O)O)c1OCCCc1cn(-c2ccc(C)cn2)nc1C(C)C` displayed a melting point of 132 to 133 °C. Then `COc1ccccc1-n1nnc2cc(F)c(N)cc21`, with 128 to 129 °C; and `N#Cc1ccc(-c2ccc(C=O)cc2)c(OCc2ccccc2)c1`, with 131 to 132 °C; and `Cc1cc(C)c(C(=O)c2ccc(-c3ccccc3)cc2)c(C)c1`, with 111 to 112 °C. Then `CCn1c(=O)c2[nH]c(/C=C/c3ccc(OC)cc3OC)nc2n(CC)c1=O`, with 279 to 280 °C; and `Cc1c(C#N)oc2c(-c3ccc(F)cc3)c(-c3ccc(S(N)(=O)=O)cc3)nn12`, with 231 to 232 °C. The same measure for `COc1ccc2c(c1)c(C=O)c(C)n2C(=O)c1ccc(Cl)cc1`: 150 to 152 °C; for `COc1ccc2c(c1)NC1(CCN(C)CC1)c1cccn1-2`: 124 to 125 °C.

As for `N=C(N)NCCCCOc1ccc2c(c1)CC(CCC(=O)O)C(=O)N2` (stereo not drawn), the melting point lay within 152 to 155 °C. On to `CN(C)c1nc(Cl)nc(Cl)n1`, for which the melting point is 123 to 124 °C.

In turn, `N#Cc1ccc(OCCCNCCO)cc1` came in with a melting point of 88 °C. The same measure for `CCOC(=O)c1cc(OCc2ccccc2)c2ccc(C#N)cc2c1`: 125 °C. The same measure for `CN(Cc1cc2c3c(c1)c(=O)c(C(=O)NCc1ccc(Cl)cc1)cn3CC(=O)N2CCO)C[C@@H](O)c1ccco1`: 166 to 167 °C; for `O=C(O)Cc1ccc(OCCNC(=O)C2Cc3ccccc3N2S(=O)(=O)c2ccc(-c3cc(C(F)(F)F)ccc3F)cc2)cc1` (stereo not drawn): 81 to 84 °C; for `C=CCc1nc(SC)nc2ccccc12`: 133 to 135 °C. The same measure for `CCCCCc1c(C(C)C)nc(C(C)C)c(CO)c1-c1cccc(Cl)c1`: 94 to 95 °C.

As to `CCOC(=O)N1CCC(n2cnc3ccc(-c4nnc(C)o4)cc32)CC1`, the melting point lay within 179 to 180 °C. Then `CC(C)(n1cncn1)C(O)(Cn1cncn1)c1ccc(F)cc1` (stereo not drawn), with 156 to 158 °C; and `Cc1cc(Cl)nnc1NN`, with 191 to 192 °C. In turn, `COc1ccc2c(n1)c(CCNC(=O)c1ccco1)c1n2CCCc2ccccc2-1` showed a melting point of 70 to 71 °C. Take `O=C(O)C1=CS[C@@H]2[C@@H]([C@H](O)c3cn4c(n3)SCC4)C(=O)N12`: the melting point was determined as 152 °C. The same measure for `CC(=O)OC1C(OC(=O)c2cccc([N+](=O)[O-])c2)C=C(C)C(=O)CC1(C)C` (stereo not drawn): 108 to 110 °C.
